Measured values from US10441668B2, “System and method for enhanced mass spectrometry imaging” (University Health Network, priority 2014, dated 2019).
Several values for one entry are separate records, joined by “and”; a condition that tells them apart may be missing. Equal entries are not always repeated.

Legend:
[1] = tested on: human MDA-MB-231 breast cancer tumors; assay: two-dimensional DESI-MS imaging of contrast agent distribution in excised human breast cancer tumor slices; format: in vivo, SCID mice; settings: 5 minutes post injection, DESI-MS images vs H&E stained images
Description: All the DESI-MS experiments described herein were performed using a Thermo Fisher Scientific LTQ mass spectrometer (San Jose, Calif., USA). Data was acquired and processed using QualBrowser Xcalibur 2.0 (Thermo Fisher Scientific). Mass spectra were acquired as full scans, in the positive ion mode, over the mass to charge ratio range from m/z 500 to 900. Typical instrumental parameters used were 4.5 kV capillary voltage and 275° C. capillary temperature. An H2O-MeOH (1:1) solution was used as the spray solvent and delivered at the flow rate of 1.5 μL min-1. Methanol (MeOH) and ultra-pure water (H2O), both HPLC-MS grade, were purchased from Sigma Aldrich (Oakville, ON, Canada). The sprayer-to-surface distance was 1.0 mm, the sprayer to inlet distance was 6-8 mm, an incident spray was set at 54°, and a collection angle of 10° was used. […]
To obtain the images shown below in FIGS. 5A-5C and FIGS. 6A-6C, SCID mice (from Harlan Laboratories) were inoculated in the lower mammary fat pad with 3×106 human MDA-MB-231 triple negative metastatic breast cancer cells and housed for 3 weeks to grow tumors up to 1 cm in diameter (caliper measurements). […] Throughout the imaging sessions, the animals' breathing was monitored using a respiratory pad and a respiratory tracking system (when imaged on the 1T Aspect or 7T Bruker MRI system, ˜30 min per imaging session). […]

breast cancer tumors = assay: kinetic DCE magnetic resonance imaging of contrast agent passively targeted to breast cancer tumors in live mice; format: in vivo; settings: intravenous injection into tail vein
Description: Referring now to FIGS. 3A and 3B, shown therein are the results of kinetic DCE magnetic resonance imaging of an exogenous contrast agent (in this example Gadoteridol) that was passively targeted to breast cancer tumors in live mice. In both cases, Gadoteridol was intravenously injected into the tail vein of mice under anesthesia with isofluorane.
A first MR image 305 was taken at the time of injection. […] A second MR image 310 was taken at 5 minutes post injection.
As indicated by legend 322, the maximum signal intensity appears to reach its peak in plot 320 after 5 minutes. The exogenous agent was seen to penetrate and diffuse into the tumor core from the peripheries of the tumor.
A second MR image 345 was taken at 5 minutes post injection.
To obtain the images shown below in FIGS. 5A-5C and FIGS. 6A-6C, SCID mice (from Harlan Laboratories) were inoculated in the lower mammary fat pad with 3×106 human MDA-MB-231 triple negative metastatic breast cancer cells and housed for 3 weeks to grow tumors up to 1 cm in diameter (caliper measurements). […] Throughout the imaging sessions, the animals' breathing was monitored using a respiratory pad and a respiratory tracking system (when imaged on the 1T Aspect or 7T Bruker MRI system, ˜30 min per imaging session).

breast cancer tumor = assay: ICP-MS quantification of Gd in sections of breast cancer tumor after acid extraction; format: in vivo, mice; settings: 200 μm thick tumor slice
Text: Referring now to FIG. 10B, shown therein are the results of quantitative analysis of the distribution of an exogenous agent in a section of a breast cancer tumor. Here, ICP-MS was used to quantify the amount of Gadolinium (Gd) element in a 200 um thick section of the breast cancer tumor shown in FIG. 10A. The distribution of all three contributing Gadoteridol adducts (discussed above with reference to FIG. 4) are shown overlaid on an image of the tumor section.
To validate the ion abundances shown in the DESI-MS image 1000, a 200 μm think-slice of tumor was sectioned into three areas (1025, 1030 and 1040). The total tissue weight in each section was determined using an analytical balance and Gadoteridol was acid extracted for ICP-MS quantification. Gadoteridol was extracted using excess volume (e.g., 3.5 mls for every 1 mg tissue material in two rounds) of 10% perchloric acid through mixing and vortexing followed by a 30 min centrifugation at 21,000G taking the supernatant that was then diluted 5× with double distilled water. For ICP-MS analysis both the standard Gadoteridol solutions and the extracted samples were taken up in excess 2% nitric acid (1000 fold dilution) and were subjected to ICP-MS quantification using a Nexlon 350 ICP-MS (Perkin-Elmer).

SMILES: CC(O)CN1CCN(CC(=O)[O-])CCN(CC(=O)[O-])CCN(CC(=O)[O-])CC1.[Gd+3] (centres unmarked) [Gadoteridol]
- signal in necrotic region of the breast cancer tumor [1]: no Gadoteridol signal
- time post injection at which the tumor site exhibits maximal contrast enhancement (MR signal intensity peak) (breast cancer tumors): 5 min and < 5 min
- absolute value of Gd element in tumor section, first area 1025 (breast cancer tumor; first area 1025, ICP-MS): 54 pg
- absolute value of Gd element in tumor section, second area 1030 (breast cancer tumor; second area 1030, ICP-MS): 12.8 pg
- absolute value of Gd element in tumor section, third area 1040 (breast cancer tumor; third area 1040, ICP-MS): 27.5 pg
